From patent US20210052771A1, “NANOPARTICULATE MINERALIZED COLLAGEN GLYCOSAMINOGLYCAN SCAFFOLD WITH AN ANTI-RESORPTION FACTOR” (THE REGENTS OF THE UNIVERSITY OF CALIFORNIA, priority 2018, published 2021)

Legend:
[1] = test system: MEK1/ERK1/2 signaling pathway; test: Western blot of hMSCs on Col-GAG and MC-GAG with PD98059; assay type: cell-based, human; details: 50 μM
Experimental: (§1) Osteogenic differentiation of hMSCs on Col-GAG and MC-GAG: 3×10^5 hMSCs were seeded onto 8 mm discs of CG-GAG and MC-GAG scaffolds in proliferation media. 24 h after seeding, media was switched to osteogenic differentiation media consisting of 10 mM β-glycerophosphate, 50 μg/mL ascorbic acid, and 0.1 μM dexamethasone. For inhibitor studies, scaffolds were treated or untreated with dorsomorphin homologue 1 (DMH1; Sigma-Aldrich) or PD98059 (Cell Signaling Technologies, Beverly, Mass.) separately, all at a concentration of 50 μM. Fresh DMH1 and PD98059 were added to each media change every 3 days.
(§2) Western blot: Lysates were prepared from scaffolds at 0, 4, 14, and 24 days of culture using SDS sample buffer and equal amounts were subjected to 4-20% SDS-PAGE (Bio-Rad, Hercules, Calif.). Western blot analysis was carried out with antibodies against OPG, RANKL, phosphorylated small mothers against decapentaplegic 1/5 (p-Smad1/5), total Smad5, phosphorylated extracellular regulated kinase 1/2 (p-ERK1/2), total ERK1/2, and (3-actin followed by 1:4000 dilutions of HRP-conjugated IgG antibodies (Bio-Rad, Hercules, Calif.) and an enhanced chemiluminescent substrate (Thermo Scientific, Rockford, Ill.). For detection of p-Smad1/5 and total Smad5, 10 μg of lysate was loaded per lane. For detection of OPG, RANKL, p-ERK1/2, total ERK1/2, and β-actin, 20 μg of lysate was loaded per lane. All antibodies were obtained from Cell Signaling Technologies (Beverly, Mass.) with the exception of RANKL, OPG and β-actin antibodies which were obtained from Santa Cruz Biotechnology (Santa Cruz, Calif.). Imaging analysis was carried out using ImageJ (NIH, Bethesda, Md.).

[2] = test system: canonical BMP receptor signaling pathway; test: Western blot of hMSCs on Col-GAG and MC-GAG with DMH1; assay type: cell-based, human; details: 50 μM
Experimental: as §1, §2

[3] = all timepoints, either material

SMILES	phosphorylated Smad1/5, total Smad5, total ERK1/2, or actin [1]	OPG protein expression ([1]; Col-GAG)	RANKL expression ([1]; Col-GAG)	OPG protein expression ([1]; MC-GAG, all timepoints)	RANKL expression ([1]; MC-GAG, particularly day 24)	phosphorylated ERK1/2 [1, 3]	total Smad5, total ERK1/2, RANKL, or actin [2]	phosphorylated ERK1/2 ([2]; MC-GAG at day 4)	phosphorylation of Smad1/5 [2, 3]	OPG expression ([2]; both Col-GAG and MC-GAG, particularly day 14)
COc1cccc(-c2cc(=O)c3ccccc3o2)c1N [PD98059]	no effects	no differences	no differences	decreased	downregulated	decreased				
CC(C)Oc1ccc(-c2cnc3c(-c4ccnc5ccccc45)cnn3c2)cc1 [DMH1, dorsomorphin homologue 1]							No differences	small elevation	partially decreased	increased
